In patent publication US10869465B2, “Transgenic mouse model of retinal vascular disease, method of making, and method of using” (OSAKA UNIVERSITY, priority 2017, dated 2020):

Columns and labels:
Assay type in all cases: in vivo
[1] = test system: retina of the constitutively active Akt-Mer Tg mouse; assay: Retinal cryosection with Hoechst staining, retinal surface layer (Example 7); details: 4-OHT i.p. 100 μg/day×3 days; 7th day after birth; vs control
Method: To the constitutively active Akt-Mer Tg mouse produced in Example 1, 10 μg/μl 4-OHT was intraperitoneally administered at a dose of 10 μl per day from the fourth day to the sixth day after birth (total dose was 100 μg/day×3 days). On the seventh day after birth, perfusion fixation from the heart was performed using 4% PFA. The eyeball was removed, and then a retinal cryosection was produced. The nuclei were visualized through Hoechst staining, and an image was obtained using a microscope (Zeiss). A mouse to which 4-OHT was not administered was used as a control and subjected to the same treatment, and then an image was obtained.

[2] = test system: retina of the constitutively active Akt-Mer Tg mouse; assay: Retinal vascular permeability, Evans blue leakage (Example 6); details: 4-OHT i.p. 10 μg/μl, 10 μl per day, 4th to 6th day after birth
Method: To the constitutively active Akt-Mer Tg mouse produced in Example 1, 10 μg/μl 4-OHT was intraperitoneally administered at a dose of 10 μl per day from the fourth day to the sixth day after birth (total dose was […]). On the seventh day after birth, 20 μl of Evans blue was intraperitoneally administered, and 1 hour after this, perfusion fixation from the heart was performed using 4% PFA, and then, the eyeball was removed. An image of the removed eyeball was obtained using an MZ16F stereoscopic microscope (Leica). A mouse to which 4-OHT was not administered was used as a control and subjected to the same treatment, and then an image was obtained.
Furthermore, for the purpose of evaluating the vascular permeability in a quantitative manner, the fluorescence intensity of Evans blue leaking from the retinal blood vessels was measured using an LSM710 confocal microscope (Zeiss) (***<0.001).

[3] = test system: retina of the constitutively active Akt-Mer Tg mouse; assay: Retina cup observation by optical microscope after persistent activation of Akt (Example 3); details: 4-OHT i.p. 100 μg/day×3 days, 4th to 6th day after birth; observed 7th day; vs mouse without 4-OHT
Method: In this example, an influence of the persistent activation of Akt on the retina in the constitutively active Akt-Mer Tg mouse produced in Example 1 was investigated. Here, the influence on the retina was confirmed by observing the retina of the constitutively active Akt-Mer Tg mouse in which Akt had been persistently activated using an optical microscope.
To the constitutively active Akt-Mer Tg mouse produced in Example 1, 10 μg/μl 4-OHT was intraperitoneally administered at a dose of 10 μl per day from the fourth day to the sixth day after birth (total dose was 100 μg/day×3 days). On the seventh day after birth, perfusion fixation from the heart was performed using 4% paraformaldehyde (abbreviated as “PFA” hereinafter). Then, a retinal cup was produced from the removed eyeball, and an optical micrograph showing the retina was obtained using MZ16F (Leica). A mouse to which 4-OHT was not administered was used as a control and subjected to the same treatment, and then an image was obtained.

[4] = test system: retina of the constitutively active Akt-Mer Tg mouse; assay: Whole-mount immunostaining (anti PECAM-1) of the retina, retinal vascular morphology (Examples 4, 5)
Method: (§1) To the constitutively active Akt-Mer Tg mouse produced in Example 1, 10 μg/μl 4-OHT was intraperitoneally administered at a dose of 10 μl per day from the fourth day to the sixth day after birth (total dose was 100 μg/day×3 days). On the seventh day after birth, perfusion fixation from the heart was performed using 4% PFA, and then a retinal cup was produced from the removed eyeball. Fluorescent immunostaining using an anti PECAM-1 (platelet endothelial cell adhesion molecule-1: CD31) antibody was performed to stain vascular endothelial cells. Subsequently, a flat-mount image of the retina was obtained using AxioObserver (Zeiss). A mouse to which 4-OHT was not administered was used as a control and subjected to the same treatment, and then an image was obtained.
For the purpose of further investigating the retinal vascular morphology in detail, the vascular lengths and vascular diameters were measured. Specifically, regarding the vascular lengths, a distance from the peripheral edge of the optic papilla to the leading end of the extending blood vessel along a vein was measured using Photoshop CS5 software. The vascular lengths at four positions in one retina were measured and quantified. Regarding the arterial diameters and venous diameters, the thickness of arteries and veins located on the circumference of a circle with a radius of 1500 μm about the optical papilla was measured also using Photoshop CS5 software (**<0.01).
as §1, with “1, 1” for “1, 10”, “was 10” for “was 100”, “days). This dose was one tenth of the dose in the previous examples.” for “days).”, “was produced.” for “was produced from the removed eyeball.”, “PECAM-1 (CD31)” for “PECAM-1 (platelet endothelial cell adhesion molecule-1: CD31)”, “was performed, and” for “was performed to stain vascular endothelial cells. Subsequently,”
For the purpose of further investigating the retinal vascular morphology in detail, the number of microaneurysms was measured. Specifically, regarding the measurement of the number of microaneurysms, the number of microaneurysms in one retina was manually measured using the flat-mount image of the retina.

[5] = 4-OHT i.p. 100 μg/day×3 days, observed 7th day after birth, vs control

Substance: 4-hydroxytamoxifen [4-OHT]
- swelling of overall retina, particularly the surface layer [1]: significantly swollen
- vascular permeability (leakage of Evans blue from blood vessels) ([2]; Evans blue i.p. on 7th day, 1 hour): the vascular permeability was increased
- fluorescence intensity of Evans blue leaking from the retinal blood vessels ([2]; confocal microscope, ***<0.001 vs control): significantly larger than that in the control
- retinal hemorrhage [3]: punctuate retinal hemorrhage was observed
- number of microaneurysms in one retina (average) ([4]; 4-OHT i.p. 10 μg/day×3 days, 7th day after birth, hardly observed in control): 90
- vascular network formation ([4]; 4-OHT i.p. 100 μg/day×3 days, 4th to 6th day after birth, observed 7th day, vs control): the formation of a dense vascular network was observed
- formation of microaneurysms ([4]; 4-OHT i.p. 100 μg/day×3 days, observed 7th day after birth): the formation of microaneurysms, which have a varicose structure, was induced
- extension of blood vessels [4, 5]: the extension of blood vessels was delayed compared with the control
- vascular diameters (arteries, veins, capillaries) [4, 5]: the overall retinal blood vessels significantly expanded
- formation of microaneurysms ([4]; low-concentration 4-OHT i.p. 10 μg/day×3 days, observed 7th day after birth): the formation of microaneurysms was also induced
